In paper PMC2667100 (Molecular and cellular endocrinology, 2008):
Numbering of substitutions follows the chain as printed. Like-named read-outs stand apart in the source and are kept apart here.

What was measured:
[1] = tested on: MCF-7 Tet-off 3β-HSD1 aromatase cells; experiment: Inhibition of DHEA-stimulated proliferation; assay type: cell-based, human; conditions: for fold higher affinity, 3β-HSD1 cells relative to 3β-HSD2 cells (IC50): ratio of proliferation IC50 values
[2] = tested on: MCF-7 Tet-off 3β-HSD2 aromatase cells; experiment: Inhibition of DHEA-stimulated proliferation; assay type: cell-based, human; conditions: DHEA 5 nM, concentration-dependent
MCF-7 cells = experiment: Proliferation of MCF-7 cells in the absence of DHEA substrate; assay type: cell-based, human
purified human 3β-HSD2 [3] = target: T1, purified human 3β-HSD2 (Homo sapiens, UniProt P26439); experiment: Substrate and cofactor kinetics of the 3β-HSD activity; assay type: biochemical; conditions: 27°C, pH 7.4
T1 sequence (P26439 1-372): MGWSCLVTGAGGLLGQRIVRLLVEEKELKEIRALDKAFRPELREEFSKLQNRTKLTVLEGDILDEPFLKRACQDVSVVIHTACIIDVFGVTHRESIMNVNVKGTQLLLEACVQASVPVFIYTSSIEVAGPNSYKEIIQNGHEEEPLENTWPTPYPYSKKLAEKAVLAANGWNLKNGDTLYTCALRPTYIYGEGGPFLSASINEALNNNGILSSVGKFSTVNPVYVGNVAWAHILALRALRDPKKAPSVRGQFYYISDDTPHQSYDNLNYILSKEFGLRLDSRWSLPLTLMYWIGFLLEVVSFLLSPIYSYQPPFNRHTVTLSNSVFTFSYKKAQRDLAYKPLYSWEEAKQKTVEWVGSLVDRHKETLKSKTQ

purified human 3β-HSD1 [4] = target: T2, purified human 3β-HSD1 (Homo sapiens, UniProt P14060); experiment: as above; assay type: biochemical; conditions: 27°C, pH 7.4
T2 sequence (P14060 whole entry): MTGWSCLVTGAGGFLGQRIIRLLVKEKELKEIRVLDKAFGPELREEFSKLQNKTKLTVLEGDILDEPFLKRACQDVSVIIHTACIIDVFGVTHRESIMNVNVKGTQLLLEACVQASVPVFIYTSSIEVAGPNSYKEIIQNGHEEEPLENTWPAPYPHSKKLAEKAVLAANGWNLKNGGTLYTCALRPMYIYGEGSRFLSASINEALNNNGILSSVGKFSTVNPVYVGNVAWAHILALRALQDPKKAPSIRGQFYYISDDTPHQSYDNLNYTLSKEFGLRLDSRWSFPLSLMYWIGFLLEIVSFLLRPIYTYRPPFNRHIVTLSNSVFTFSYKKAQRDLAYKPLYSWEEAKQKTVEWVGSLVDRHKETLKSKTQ

[5] = target: T3, purified human P195R-2 mutant of 3β-HSD2 (Homo sapiens, UniProt P26439, P195R); experiment: as above; assay type: biochemical
T3 sequence (P26439 1-372 P195R): T1 sequence (P26439 1-372) with P195R

[6] = target: T3, purified human P195R-2 mutant of 3β-HSD2; experiment: Inhibition kinetics of purified enzyme; assay type: biochemical
purified human 3β-HSD1 [7] = target: T2, purified human 3β-HSD1; experiment: Inhibition kinetics of purified enzyme; assay type: biochemical
purified human 3β-HSD2 [8] = target: T1, purified human 3β-HSD2; experiment: Inhibition kinetics of purified enzyme; assay type: biochemical; conditions: for mode of inhibition: Dixon analysis
[9] = tested on: MCF-7 Tet-off 3β-HSD2 aromatase cells; experiment: Stimulation of proliferation; assay type: cell-based, human; conditions: for EC50: Homo sapiens, MCF7, 240 h, read-out: EC50, stimulation of growth; for stimulation of cell growth: no dox
[10] = tested on: MCF-7 Tet-off 3β-HSD1 aromatase cells; experiment: Stimulation of proliferation; assay type: cell-based, human; conditions: for EC50: Homo sapiens, MCF7, 240 h, read-out: EC50, stimulation of growth; for stimulation of cell growth: no dox
[11] = tested on: MCF-7 Tet-off 3β-HSD1 and 3β-HSD2 aromatase cells; experiment: DHEA stimulation of proliferation, mean over both recombinant cell lines; assay type: cell-based; conditions: Homo sapiens, MCF7, read-out: mean EC50, stimulation of proliferation
[12] = target: T3, purified human P195R-2 mutant of 3β-HSD2; experiment: Substrate and cofactor kinetics of the isomerase activity; assay type: biochemical; conditions: 27°C, pH 7.4
purified human 3β-HSD1 [13] = target: T2, purified human 3β-HSD1; experiment: as above; assay type: biochemical; conditions: 27°C, pH 7.4
purified human 3β-HSD2 [14] = target: T1, purified human 3β-HSD2; experiment: as above; assay type: biochemical; conditions: 27°C, pH 7.4
[15] = read-out: Km, 3β-HSD cofactor, NAD+ 10–200 μM, DHEA 100 μM
[16] = DHEA 8.0 or 20.0 μM, NAD+ 0.2 mM, 27 °C, pH 7.4
[17] = NADH 0–50 μM, 5-androstene-3,17-dione 100 μM
[18] = read-out: Km, isomerase cofactor (allosteric activator), NADH 0–50 μM, 5-androstene-3,17-dione 100 μM
[19] = 5-androstene-3,17-dione 20–100 μM, NADH 0.05 mM

## 4-hydroxy-tamoxifen
[1]; DHEA 5 nM, concentration-dependent
  effect on DHEA-stimulated proliferation: decreases the DHEA-stimulated proliferation
[2]
  effect on DHEA-stimulated proliferation: decreases the DHEA-stimulated proliferation

## N#Cc1ccc(C(c2ccc(C#N)cc2)n2cncn2)cc1 [letrozole]
MCF-7 cells
  ER-agonist activity (stimulation of proliferation): none of these compounds has ER-agonist activity

## NC(=O)c1ccc[n+]([C@@H]2O[C@H](COP(=O)([O-])OP(=O)(O)OC[C@H]3O[C@@H](n4cnc5c(N)ncnc54)[C@H](O)[C@@H]3O)[C@@H](O)[C@H]2O)c1 [NAD^+]
Purified human 3β-HSD2 [3]; NAD+ 10–200 μM, DHEA 100 μM
  kcat, 3β-HSD cofactor: 0.118 ± 0.01 s⁻¹
Purified human 3β-HSD2 [3]; [15]
  Km: 86.3 ± 5.6 µM
Purified human 3β-HSD1 [4]; NAD+ 10–200 μM, DHEA 100 μM
  kcat, 3β-HSD cofactor: 0.0583 ± 0.0033 s⁻¹
Purified human 3β-HSD1 [4]; [15]
  Km: 34.1 ± 1.7 µM
[5]; NAD+ 10–200 μM, DHEA 100 μM, 27°C, pH 7.4
  kcat, 3β-HSD cofactor: 0.153 ± 0.005 s⁻¹
[5]; read-out: Km, 3β-HSD cofactor, NAD+ 10–200 μM, DHEA 100 μM, 27°C, pH 7.4
  Km: 56.4 ± 3.2 µM

## C[C@]12CC[C@H]3[C@@H](CC[C@@]45O[C@@H]4C(O)=C(C#N)C[C@]35C)[C@@H]1CC[C@@H]2O [trilostane, 2α-cyano-4α,5α-epoxy-17β-ol-androstane-3-one]
[6]
  Ki: 190 ± 20 nM
[1]
  fold higher affinity, 3β-HSD1 cells relative to 3β-HSD2 cells (IC50): 16 fold
Purified human 3β-HSD1 [7]
  Ki: 100 ± 10 nM
Purified human 3β-HSD1 [7]; purified enzymes
  fold higher affinity for 3β-HSD1 than 3β-HSD2 (Ki): 16 fold
Purified human 3β-HSD2 [8]
  Ki: 1600 ± 100 nM
  mode of inhibition: noncompetitively
MCF-7 cells
  ER-agonist activity (stimulation of proliferation): none of these compounds has ER-agonist activity

## C[C@]1(O)CC[C@H]2[C@@H]3CC[C@@]45O[C@]4(C)C(O)=C(C#N)C[C@]5(C)[C@H]3CC[C@@]21C [epostane]
[1]
  fold higher affinity, 3β-HSD1 cells relative to 3β-HSD2 cells (IC50): 12 fold
MCF-7 cells
  ER-agonist activity (stimulation of proliferation): none of these compounds has ER-agonist activity

## C[C@]12CC[C@@H]3c4ccc(O)cc4CC[C@H]3[C@@H]1CC[C@@H]2O [estradiol]
[9]
  EC50: 0.32 nM
[10]
  EC50: 0.24 nM

## CC(=O)OC1CCC2C3CCC45OC4C(O)=C(C#N)CC5(C)C3CCC12C (stereo not drawn) [17β-acetoxy-trilostane]
[6]; [16]
  Ki: 390 ± 30 nM
Purified human 3β-HSD1 [7]; DHEA 4.0 or 8.0 μM, NAD+ 0.2 mM, 27 °C, pH 7.4
  Ki: 430 ± 30 nM
Purified human 3β-HSD2 [8]; [16]
  Ki: 1590 ± 100 nM
Purified human 3β-HSD2 [8]
  mode of inhibition: non-competitive

## C[C@]12CC[C@H](O)CC1=CC[C@@H]1[C@@H]2CC[C@]2(C)C(=O)CC[C@@H]12 [DHEA, Dehydroepiandrosterone]
Purified human 3β-HSD2 [3]; DHEA 2–100 μM, NAD+ 0.2 mM
  kcat, 3β-HSD substrate: 0.115 ± 0.0083 s⁻¹
Purified human 3β-HSD1 [4]; DHEA 2–100 μM, NAD+ 0.2 mM
  kcat, 3β-HSD substrate: 0.055 ± 0.0033 s⁻¹
[9]
  stimulation of cell growth: stimulated
[11]
  EC50: 5 nM
[10]
  stimulation of cell growth: stimulated
[5]; DHEA 2–100 μM, NAD+ 0.2 mM, 27°C, pH 7.4
  kcat, 3β-HSD substrate: 0.158 ± 0.012 s⁻¹
[5]; ratio of Km values
  fold higher affinity for substrate, P195R-2 vs wild-type 3β-HSD2 (Km): 3.6 fold
[5]; read-out: Km, 3β-HSD substrate, DHEA 2–100 μM, NAD+ 0.2 mM, 27°C, pH 7.4
  Km: 13.3 ± 2.5 µM

## C[C@]12CC[C@H](OS(=O)(=O)O)CC1=CC[C@@H]1[C@@H]2CC[C@]2(C)C(=O)CC[C@@H]12 [DHEA-S, dehydroepiandrosterone-sulfate]
[9]
  stimulation of cell growth: stimulated
[10]
  stimulation of cell growth: stimulated

## C[C@]12CCC(=O)C=C1CC[C@@H]1[C@@H]2CC[C@]2(C)C(=O)CC[C@@H]12 [Androstenedione, androstenedione]
[9]
  stimulation of cell growth: stimulates the proliferation
[10]
  stimulation of cell growth: stimulates the proliferation

## NC(=O)C1=CN([C@@H]2O[C@H](COP(=O)(O)OP(=O)(O)OC[C@H]3O[C@@H](n4cnc5c(N)ncnc54)[C@H](O)[C@@H]3O)[C@@H](O)[C@H]2O)C=CC1 [NADH]
[12]; [17]
  kcat, isomerase cofactor (allosteric activator): 1.49 ± 0.0967 s⁻¹
[12]; [18]
  Km: 10 ± 0.2 µM
Purified human 3β-HSD1 [13]; [17]
  kcat, isomerase cofactor (allosteric activator): 0.75 ± 0.03 s⁻¹
Purified human 3β-HSD1 [13]; [18]
  Km: 4.6 ± 0.2 µM
Purified human 3β-HSD2 [14]; [17]
  kcat, isomerase cofactor (allosteric activator): 1.65 ± 0.107 s⁻¹
Purified human 3β-HSD2 [14]; [18]
  Km: 12.6 ± 0.9 µM

## C[C@]12CC[C@@H]3c4ccc(O)cc4CC[C@H]3[C@@H]1CCC2=O [estrone]
[9]
  EC50: 0.34 nM
[10]
  EC50: 0.39 nM

## C[C@]12CCC(=O)CC1=CC[C@@H]1[C@@H]2CC[C@]2(C)C(=O)CC[C@@H]12 [5-androstene-3,17-dione]
[12]; [19]
  kcat, isomerase substrate: 2.18 ± 0.163 s⁻¹
[12]; read-out: Km, isomerase substrate, 5-androstene-3,17-dione 20–100 μM, NADH 0.05 mM
  Km: 119 ± 5 µM
Purified human 3β-HSD1 [13]; [19]
  kcat, isomerase substrate: 0.837 ± 0.0333 s⁻¹
Purified human 3β-HSD2 [14]; [19]
  kcat, isomerase substrate: 1.36 ± 0.1 s⁻¹
